In patent US9795607B2, “Substituted pyrrolopyrimidine compounds, compositions thereof, and methods of treatment therewith” (Signal Pharmaceutical, LLC, priority 2013, dated 2017):

These compounds were tested on Triple negative breast cancer cell line CAL51 (assay: Cell Titer Glo proliferation assay, CAL51). Details: Homo sapiens, CAL-51; CAL51 cell proliferation (Table 1); read-out: Act. Level.
Format: cell-based
In short: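 CAL51 cells grown in DMEM or RPMI1640 with 10% FBS and 2 mM L-glutamine, cultured overnight, then exposed to serially diluted compound (0.2% DMSO final) for 72 h. Viability read by Cell Titer Glo luminescence.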

IC50 [nM]	SMILES
< 100	CNC(=O)c1ccc(Nc2nc(OC(C)C)c3c(-c4ccc5nc(C)oc5c4)c[nH]c3n2)c(Cl)c1 [Example 426, 3-chloro-4-(4-isopropoxy-5-(2-methylbenzo[d]oxazol-6-yl)-7H-pyrrolo[2,3-d]pyrimidin-2-ylamino)-N-methylbenzamide]
< 100	Cc1cc(C(=O)N(C)C)ccc1Nc1nc(OC(C)C)c2c(-c3ccnc(F)c3)c[nH]c2n1 [Example 402, 4-(5-(2-fluoropyridin-4-yl)-4-isopropoxy-7H-pyrrolo[2,3-d]pyrimidin-2-ylamino)-N,N,3-trimethylbenzamide]

Same assay, conditions: Homo sapiens, CAL-51; CAL51 cell proliferation, Cell Titer Glo; read-out: Act. Level

IC50 [nM]	SMILES
< 100	COCCn1ncc(Nc2nc(OC3CCCC3)c3c(-c4ccc5nc(C)oc5c4)c[nH]c3n2)c1Cl [Example 378, N-(5-chloro-1-(2-methoxyethyl)-1H-pyrazol-4-yl)-4-(cyclopentyloxy)-5-(2-methylbenzo[d]oxazol-6-yl)-7H-pyrrolo[2,3-d]pyrimidin-2-amine]
100 to 400	COc1nc(Nc2cn(C)nc2C)nc2[nH]cc(-c3ccncc3)c12 [Example 393, N-(1,3-dimethyl-1H-pyrazol-4-yl)-4-methoxy-5-(pyridin-4-yl)-7H-pyrrolo[2,3-d]pyrimidin-2-amine]
< 100	CNC(=O)c1ccc(-c2c[nH]c3nc(Nc4ccc(C(=O)NC5COC5)cc4OC)nc(O[C@H]4CCOC4)c23)cc1 [Example 376, (S)-3-methoxy-4-(5-(4-(methylcarbamoyl)phenyl)-4-(tetrahydrofuran-3-yloxy)-7H-pyrrolo[2,3-d]pyrimidin-2-ylamino)-N-(oxetan-3-yl)benzamide]

The next lines start with the compound.

SMILES	IC50 [nM]
CNC(=O)c1ccc(Nc2nc(OCCOC)c3c(-c4cnn(C)c4)c[nH]c3n2)c(OC)c1 [Example 326, 3-methoxy-4-(4-(2-methoxyethoxy)-5-(1-methyl-1H-pyrazol-4-yl)-7H-pyrrolo[2,3-d]pyrimidin-2-ylamino)-N-methylbenzamide]	< 100
COc1cc(C(=O)NC2COC2)ccc1Nc1nc(OC2CCC2)c2c(-c3ccc(-c4ncc[nH]4)cc3)c[nH]c2n1 [Example 360, 4-(5-(4-(1H-imidazol-2-yl)phenyl)-4-cyclobutoxy-7H-pyrrolo[2,3-d]pyrimidin-2-ylamino)-3-methoxy-N-(oxetan-3-yl)benzamide]	< 100
CNC(=O)c1ccc(-c2c[nH]c3nc(Nc4ccc(C(=O)NC5COC5)cc4OC)nc(OC4CCC4)c23)cc1F [Example 353, 4-(4-cyclobutoxy-2-(2-methoxy-4-(oxetan-3-ylcartbamoyl)phenylamino)-7H-pyrrolo[2,3-d]pyrimidin-5-yl)-2-fluoro-N-methylbenzamide]	1000 to 10000
CNC(=O)c1ccc(-c2c[nH]c3nc(Nc4ccc(C(=O)NC5CN(C)C5)cc4OC)nc(OC4CCC4)c23)cc1 [Example 348, 4-(4-cyclobutoxy-5-(4-(methylcarbamoyl)phenyl)-7H-pyrrolo[2,3-d]pyrimidin-2-ylamino)-3-methoxy-N-(1-methylazetidin-3-yl)benzamide]	100 to 400
CNC(=O)c1ccc(Nc2nc(OC3CCCC3)c3c(-c4ccc(F)cc4C)c[nH]c3n2)c(OC)c1 [Example 319, 4-(4-(cyclopentyloxy)-5-(4-fluoro-2-methylphenyl)-7H-pyrrolo[2,3-d]pyrimidin-2-ylamino)-3-methoxy-N-methylbenzamide]	1000 to 10000
